Laboratory results from patent publication US20230149537A1, “VACCINES, ADJUVANTS, AND METHODS OF GENERATING AN IMMUNE RESPONSE” (priority 2020, published 2023).

Columns and labels:
SARS-CoV-2 Spike [1] = system: SARS-CoV-2 Spike; design: species or system C57BL/6 mice; conditions: mouse, in vivo, ip
T cell = system: T cell; design: species or system C57BL/6 mice; conditions: mouse, in vivo, ip
SARS-CoV-2 Spike [2] = system: SARS-CoV-2 Spike; design: species or system  mice; conditions: mouse, in vivo

## CCCCCCCCCCCC(=O)CC(=O)N[C@H](COCCCCCCCCCC)COP(=O)([O-])OCCNC(=O)NCCOP(=O)([O-])OC[C@@H](COCC[C@@H](CCCCCCC)OC(=O)CCCCCCCCCCC)NC(=O)CC(=O)CCCCCCCCCCC.[Na+].[Na+] [Group E6020]
SARS-CoV-2 Spike [1]
  IgG profile (IgG2/IgG1): significant higher IgG2 than with Alum alone
T cell
  Th1-type T cell responses: significantly enhanced Th1-type T cell responses
SARS-CoV-2 Spike [2]
  IgG1 and IgG2 Ab binding titers: increase in IgG2 production
